Measurements taken from publication PMC10256801, “A multicentric consortium study demonstrates that dimethylarginine dimethylaminohydrolase 2 is not a dimethylarginine dimethylaminohydrolase” (Nature Communications, 2023).

Biological target: T1, Dimethylarginine dimethylaminohydrolase 1 (DDAH1) (Homo sapiens, UniProt O94760)
T1 construct: N-terminal fusion protein with glutathione S-transferase (DDAH1-GST)
Assay: MicroScale Thermophoresis (MST) with purified recombinant protein; hydrolysis to L-citrulline also measured
Conditions: read-out: Binding status Kd (μM) ± confidence values

T1 sequence (O94760 whole entry, the tested form may be a part): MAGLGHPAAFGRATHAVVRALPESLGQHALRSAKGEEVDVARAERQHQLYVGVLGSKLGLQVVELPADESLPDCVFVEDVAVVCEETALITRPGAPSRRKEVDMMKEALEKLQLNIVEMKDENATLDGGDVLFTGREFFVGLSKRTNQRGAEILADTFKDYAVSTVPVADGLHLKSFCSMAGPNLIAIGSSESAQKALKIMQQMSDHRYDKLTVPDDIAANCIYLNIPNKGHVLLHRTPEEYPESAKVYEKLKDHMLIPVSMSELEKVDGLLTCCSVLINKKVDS

Question: How did the Kd turn out when `CN(C)C(=N)NCCC[C@H](N)C(=O)O` [ADMA] was run?
Answer: The Kd was 4.27 ± 0.46 µM.
